Measurements reported in ChEMBL document CHEMBL4665653, “VU6005806/AZN-00016130, an advanced M positive allosteric modulator (PAM) profiled as a potential preclinical development candidate” (Bioorg Med Chem Lett, 2019).
In brackets after ≈: the same amount, converted by molar mass.

How the values were obtained:
Rattus norvegicus [1] = organism: Rattus norvegicus; assay: Displacement of [3H]-MDL105519 from NMDA glutamate receptor glycine binding site in Wistar rat brain assessed as residual binding level for radioligand at 10 uM incubated for 30 mins by scintillation counting analysis relative to control; assay type: tissue-based
[2] = Brain to plasma permeability coefficient, Kp in Sprague-Dawley rat at 0.1 to 0.2 mg/kg, iv measured after 1.5 hrs; assay type: ADME, organism-based; details: dose 0.1-0.2 mg/kg
[3] = target: Muscarinic acetylcholine receptor M2 (Homo sapiens) (UniProt P08172); assay: Displacement of [3H]N-Methylscopolamine from full length human recombinant muscarinic M2 receptor expressed in CHO-K1 cells assessed as residual binding level for radioligand at 10 uM measured after 120 mins by radiometric scintillation analysis relative to control; assay type: cell-based
[4] = Fraction unbound in rat plasma; assay type: ADME, cell-free
[5] = target: Glucocorticoid receptor (Homo sapiens) (UniProt P04150); assay: Displacement of [3H]Dexamethasone from recombinant full length human glucocorticoid receptor expressed in insect cells assessed as residual binding level for radioligand at 10 uM incubated for 1440 mins by scintillation counting analysis relative to control
[6] = target: Histamine H2 receptor (Homo sapiens) (UniProt P25021); assay: Displacement of [125I]aminopotentidine full length recombinant human histamine H2 receptor expressed in CHO-K1 cells assessed as residual binding level for radioligand at 10 uM after 120 mins by scintillation counting analysis relative to control; assay type: cell-based
[7] = Unbound brain-to-plasma concentration ratio in cynomolgus monkey; assay type: ADME, Macaca fascicularis; details: read-out: K(p,uu,brain)
Rattus norvegicus [8] = organism: Rattus norvegicus; assay: Displacement of [3H]-Flunitrazepam from Wistar rat brain GABA(A)/BzR site assessed as residual binding level for radioligand at 10 uM measured after 60 mins by scintillation counting method relative to control; assay type: tissue-based
[9] = target: Delta-type opioid receptor (Homo sapiens) (UniProt P41143); assay: Displacement of [3H]-Naltrindole from recombinant full length human delta opioid receptor expressed in HEK293 cells assessed as residual binding level for radioligand at 10 uM incubated for 60 mins by scintillation counting analysis relative to control; assay type: cell-based
Rattus norvegicus [10] = assay: Reversal of amphetamine-induced hyperlocomotion in po dosed rat assessed as minimum effective dose; assay type: functional; details: read-out: MED
[11] = target: Muscarinic acetylcholine receptor M4 (Rattus norvegicus) (UniProt P08485); assay: Positive allosteric modulation of rat M4 receptor relative to acetylcholine; details: filed as positive allosteric modulator
[12] = target: Muscarinic acetylcholine receptor M3 (Homo sapiens, UniProt P20309); assay: Positive allosteric modulation of human M3 receptor
[13] = target: Beta-1 adrenergic receptor (Homo sapiens) (UniProt P08588); assay: Displacement of [125I]Cyanopindolol from recombinant full length human beta1 adrenoceptor expressed in CHO-K1 cells assessed as residual binding level for radioligand at 10 uM after 120 mins by radiometric scintillation analysis relative to control; assay type: cell-based
[14] = target: Melatonin receptor type 1A (Homo sapiens) (UniProt P48039); assay: Displacement of 2-[1251]-iodomelatonin from human MT1 receptor expressed in CHO-K1 cells assessed as residual binding level for radioligand at 10 uM incubated for180 mins by scintillation counting analysis relative to control; assay type: cell-based; details: time 180.0 min
[15] = target: Sodium-dependent noradrenaline transporter (Homo sapiens) (UniProt P23975); assay: Displacement of [125I]RTI-55 from full length recombinant human NET expressed in MDCK cells assessed as residual binding level for radioligand at 10 uM after 180 mins by radiometric scintillation analysis relative to control; assay type: cell-based
[16] = target: Neuropeptide Y receptor type 2 (Homo sapiens) (UniProt P49146); assay: Displacement of [125I]peptide YY from human Y2 receptor in KAN-TS cell membrane assessed as residual binding level for radioligand at 10 uM after 120 mins by scintillation counting analysis relative to control
[17] = target: Prostaglandin E2 receptor EP4 subtype (Homo sapiens) (UniProt P35408); assay: Displacement of [3H]-Prostaglandin E2 from full length recombinant human prostanoid receptor EP4 expressed in Chem-1 cells assessed as residual binding level for radioligand at 10 uM incubated for 120 mins by scintillation counting analysis relative to control; assay type: cell-based
[18] = target: Beta-2 adrenergic receptor (Homo sapiens) (UniProt P07550); assay: Displacement of [3H]-(-)CGP 12177 from recombinant full length human adrenergic beta 2 receptor expressed in CHO-hNBR1 cells assessed as residual binding level for radioligand at 10 uM incubated for 60 mins by radiometric scintillation analysis relative to control; assay type: cell-based
Rattus norvegicus [19] = organism: Rattus norvegicus; assay: Displacement of [3H]-Rolipram from phosphodiesterases PDE4 receptor rolipram binding site in Wistar rat brain assessed as residual binding level for radioligand at 10 uM incubated for 60 mins; assay type: tissue-based
Rattus norvegicus [20] = organism: Rattus norvegicus; assay: Displacement of [3H]-idazoxan from imidazoline I2 receptor in Wistar rat brain assessed as residual binding level for radioligand at 10 uM incubated for 30 mins by scintillation counting analysis relative to control; assay type: tissue-based
[21] = target: Glutamate NMDA receptor (Rattus norvegicus) (UniProt P35439+Q00959+Q00960+Q00961+Q62645+Q8VHN2+Q9R1M7); assay: Displacement of [3H]-CGP39653 from NMDA glutamate receptor in Wistar rat brain assessed as residual binding level for radioligand at 10 uM incubated for 20 mins by scintillation counting analysis relative to control; assay type: tissue-based
[22] = target: D(1A) dopamine receptor (Homo sapiens) (UniProt P21728); assay: Displacement of [3H]-SCH 23390 from recombinant full length human dopamine D1 receptor expressed in CHO cells assessed as residual binding level for radioligand at 10 uM after 120 mins by radiometric scintillation analysis relative to control; assay type: cell-based
[23] = Solubility of the compound pH 7.5; assay type: physicochemical; details: buffer
[24] = Positive allosteric modulation of dog M4 receptor; set-up: species or system Canis lupus familiaris
[25] = target: Adenosine receptor A1 (Homo sapiens) (UniProt P30542); assay: Displacement of [3H]DPCPX from recombinant full length human adenosine A1 receptor expressed in CHO-K1 cells assessed as residual binding level for radioligand at 10 uM incubated for 90 mins radiometric scintillation analysis relative to control; assay type: cell-based
[26] = target: Adenosine receptor A3 (Homo sapiens) (UniProt P0DMS8); assay: Displacement of [125I]AB-MECA from recombinant full length human adenosine A3 receptor expressed in CHO-K1 cells assessed as residual binding level for radioligand at 10 uM after 60 mins by radiometric scintillation analysis relative to control; assay type: cell-based
[27] = Half life in rat; assay type: ADME; details: in vivo
Cytochrome P450 2C9 = Cytochrome P450 2C9 (Homo sapiens, UniProt P11712); assay: Inhibition of CYP2C9 (unknown origin); assay type: ADME
[28] = target: Epidermal growth factor receptor (Homo sapiens) (UniProt P00533); assay: Displacement of [125I]-EGF from human EGF receptor expressed in A-431 cells assessed as residual binding level for radioligand at 10 uM incubated for 60 mins by radiometric scintillation analysis relative to control; assay type: cell-based
[29] = target: Sodium-dependent serotonin transporter (Homo sapiens) (UniProt P31645); assay: Displacement of [3H]paroxetine from full length recombinant human SET expressed in HEK293 cells assessed as residual binding level for radioligand at 10 uM after 60 mins by radiometric scintillation analysis relative to control; assay type: cell-based
[30] = Distribution coefficient, log D of the compound pH 7.5; assay type: physicochemical; details: octanol/water

Chain of Melatonin receptor type 1A (Homo sapiens) (P48039 whole entry): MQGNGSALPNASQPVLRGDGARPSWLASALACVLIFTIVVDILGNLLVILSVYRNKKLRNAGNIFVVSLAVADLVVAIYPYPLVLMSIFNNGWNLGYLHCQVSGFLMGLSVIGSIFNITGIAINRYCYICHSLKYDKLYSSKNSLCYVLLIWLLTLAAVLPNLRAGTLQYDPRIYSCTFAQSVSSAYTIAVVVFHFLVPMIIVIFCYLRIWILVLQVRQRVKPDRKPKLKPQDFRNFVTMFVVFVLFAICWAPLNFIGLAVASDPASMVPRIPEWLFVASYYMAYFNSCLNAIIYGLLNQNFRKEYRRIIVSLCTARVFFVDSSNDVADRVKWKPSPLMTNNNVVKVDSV
Chain of Adenosine receptor A3 (Homo sapiens) (P0DMS8 whole entry): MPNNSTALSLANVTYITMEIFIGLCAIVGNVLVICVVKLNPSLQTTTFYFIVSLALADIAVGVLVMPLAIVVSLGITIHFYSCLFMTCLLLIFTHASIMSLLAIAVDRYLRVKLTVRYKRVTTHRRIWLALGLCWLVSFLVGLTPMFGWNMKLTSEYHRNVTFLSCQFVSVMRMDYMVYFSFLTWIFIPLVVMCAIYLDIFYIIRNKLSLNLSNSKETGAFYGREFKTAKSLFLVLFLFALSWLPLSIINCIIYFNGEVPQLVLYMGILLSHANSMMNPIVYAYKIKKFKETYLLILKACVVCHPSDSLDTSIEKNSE
Chain of Sodium-dependent noradrenaline transporter (Homo sapiens) (P23975 whole entry): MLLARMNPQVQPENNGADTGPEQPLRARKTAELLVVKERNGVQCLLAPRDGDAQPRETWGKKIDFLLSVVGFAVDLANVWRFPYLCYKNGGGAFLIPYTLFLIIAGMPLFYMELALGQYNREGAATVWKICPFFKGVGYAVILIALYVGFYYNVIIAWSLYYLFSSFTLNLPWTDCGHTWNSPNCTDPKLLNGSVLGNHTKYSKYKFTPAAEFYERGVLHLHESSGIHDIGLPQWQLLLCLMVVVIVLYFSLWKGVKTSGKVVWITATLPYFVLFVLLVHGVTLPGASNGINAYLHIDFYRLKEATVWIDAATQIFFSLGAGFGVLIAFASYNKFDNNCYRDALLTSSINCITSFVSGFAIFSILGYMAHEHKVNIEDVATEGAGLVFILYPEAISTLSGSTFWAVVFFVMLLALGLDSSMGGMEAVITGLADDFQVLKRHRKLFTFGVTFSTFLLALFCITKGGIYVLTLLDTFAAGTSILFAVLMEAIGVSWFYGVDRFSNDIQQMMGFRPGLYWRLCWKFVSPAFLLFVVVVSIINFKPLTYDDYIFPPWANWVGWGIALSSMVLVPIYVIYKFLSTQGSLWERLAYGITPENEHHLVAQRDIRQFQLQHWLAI
Chain of Epidermal growth factor receptor (Homo sapiens) (P00533 whole entry): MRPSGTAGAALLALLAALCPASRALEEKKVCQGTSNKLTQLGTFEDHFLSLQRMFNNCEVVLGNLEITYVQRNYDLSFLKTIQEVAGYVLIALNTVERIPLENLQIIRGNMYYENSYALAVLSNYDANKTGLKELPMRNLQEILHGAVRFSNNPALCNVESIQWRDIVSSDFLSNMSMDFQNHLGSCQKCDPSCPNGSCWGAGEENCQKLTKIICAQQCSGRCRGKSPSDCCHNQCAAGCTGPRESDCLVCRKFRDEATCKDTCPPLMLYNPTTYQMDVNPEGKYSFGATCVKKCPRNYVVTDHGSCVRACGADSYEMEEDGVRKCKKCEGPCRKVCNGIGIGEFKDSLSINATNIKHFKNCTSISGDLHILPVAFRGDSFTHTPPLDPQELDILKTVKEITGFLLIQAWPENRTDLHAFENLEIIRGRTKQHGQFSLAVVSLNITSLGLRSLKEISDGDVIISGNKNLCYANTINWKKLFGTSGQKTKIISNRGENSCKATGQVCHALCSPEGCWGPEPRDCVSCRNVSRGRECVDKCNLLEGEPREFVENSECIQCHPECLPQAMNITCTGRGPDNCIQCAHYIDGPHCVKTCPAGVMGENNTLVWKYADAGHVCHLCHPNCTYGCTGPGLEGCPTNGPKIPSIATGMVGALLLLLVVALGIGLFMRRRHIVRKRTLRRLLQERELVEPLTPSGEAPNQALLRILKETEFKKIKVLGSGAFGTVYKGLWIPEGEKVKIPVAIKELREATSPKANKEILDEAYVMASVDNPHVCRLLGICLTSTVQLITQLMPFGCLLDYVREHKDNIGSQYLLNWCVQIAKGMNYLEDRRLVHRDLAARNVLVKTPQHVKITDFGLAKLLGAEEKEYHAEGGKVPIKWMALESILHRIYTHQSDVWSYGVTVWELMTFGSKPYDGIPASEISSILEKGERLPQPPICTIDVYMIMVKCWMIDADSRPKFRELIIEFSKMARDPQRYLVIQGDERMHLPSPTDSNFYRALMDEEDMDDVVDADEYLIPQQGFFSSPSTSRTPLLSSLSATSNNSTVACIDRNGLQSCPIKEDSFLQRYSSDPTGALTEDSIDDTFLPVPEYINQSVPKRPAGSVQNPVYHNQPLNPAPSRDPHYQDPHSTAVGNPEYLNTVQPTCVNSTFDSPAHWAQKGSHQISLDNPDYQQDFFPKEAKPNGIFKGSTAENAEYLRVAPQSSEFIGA
Chain of Cytochrome P450 2C9 (P11712 whole entry): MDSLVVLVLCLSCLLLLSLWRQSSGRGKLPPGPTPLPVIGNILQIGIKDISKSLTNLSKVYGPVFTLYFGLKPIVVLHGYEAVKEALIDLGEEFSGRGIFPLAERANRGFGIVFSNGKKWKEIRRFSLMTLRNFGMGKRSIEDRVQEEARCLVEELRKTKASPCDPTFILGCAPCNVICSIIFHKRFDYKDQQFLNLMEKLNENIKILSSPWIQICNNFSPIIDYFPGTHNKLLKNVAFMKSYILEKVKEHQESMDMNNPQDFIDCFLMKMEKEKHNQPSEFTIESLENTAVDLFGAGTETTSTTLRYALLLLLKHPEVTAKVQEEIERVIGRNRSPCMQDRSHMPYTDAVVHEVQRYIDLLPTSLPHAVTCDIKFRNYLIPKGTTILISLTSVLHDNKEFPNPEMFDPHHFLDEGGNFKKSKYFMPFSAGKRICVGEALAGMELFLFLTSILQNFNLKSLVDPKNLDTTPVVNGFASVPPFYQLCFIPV
Chain of Beta-2 adrenergic receptor (Homo sapiens) (P07550 whole entry, looked up): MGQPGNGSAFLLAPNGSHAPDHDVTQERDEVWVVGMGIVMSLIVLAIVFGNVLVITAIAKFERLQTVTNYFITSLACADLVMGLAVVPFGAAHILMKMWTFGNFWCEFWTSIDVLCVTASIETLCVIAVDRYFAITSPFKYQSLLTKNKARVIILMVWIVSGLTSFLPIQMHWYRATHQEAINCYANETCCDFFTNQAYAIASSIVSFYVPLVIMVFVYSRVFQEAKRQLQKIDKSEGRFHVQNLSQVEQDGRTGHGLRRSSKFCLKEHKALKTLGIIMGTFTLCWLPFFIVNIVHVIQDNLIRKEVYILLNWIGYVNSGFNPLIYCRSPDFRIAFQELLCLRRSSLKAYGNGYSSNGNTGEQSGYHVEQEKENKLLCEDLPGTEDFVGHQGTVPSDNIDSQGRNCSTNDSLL
Chain of Prostaglandin E2 receptor EP4 subtype (Homo sapiens) (P35408 whole entry): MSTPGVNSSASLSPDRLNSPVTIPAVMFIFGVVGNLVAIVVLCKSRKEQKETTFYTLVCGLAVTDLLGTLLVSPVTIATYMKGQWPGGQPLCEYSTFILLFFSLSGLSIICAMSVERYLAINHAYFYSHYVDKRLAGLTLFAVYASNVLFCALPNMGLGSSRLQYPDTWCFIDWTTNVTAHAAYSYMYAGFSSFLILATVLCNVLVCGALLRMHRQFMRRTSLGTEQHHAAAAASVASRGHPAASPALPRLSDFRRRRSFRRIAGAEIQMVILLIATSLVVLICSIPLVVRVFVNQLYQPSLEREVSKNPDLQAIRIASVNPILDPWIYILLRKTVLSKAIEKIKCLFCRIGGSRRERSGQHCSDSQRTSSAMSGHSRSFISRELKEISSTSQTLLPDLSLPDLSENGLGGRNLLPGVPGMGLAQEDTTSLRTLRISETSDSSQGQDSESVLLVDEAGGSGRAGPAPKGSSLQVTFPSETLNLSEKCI
Chain of D(1A) dopamine receptor (Homo sapiens) (P21728 whole entry): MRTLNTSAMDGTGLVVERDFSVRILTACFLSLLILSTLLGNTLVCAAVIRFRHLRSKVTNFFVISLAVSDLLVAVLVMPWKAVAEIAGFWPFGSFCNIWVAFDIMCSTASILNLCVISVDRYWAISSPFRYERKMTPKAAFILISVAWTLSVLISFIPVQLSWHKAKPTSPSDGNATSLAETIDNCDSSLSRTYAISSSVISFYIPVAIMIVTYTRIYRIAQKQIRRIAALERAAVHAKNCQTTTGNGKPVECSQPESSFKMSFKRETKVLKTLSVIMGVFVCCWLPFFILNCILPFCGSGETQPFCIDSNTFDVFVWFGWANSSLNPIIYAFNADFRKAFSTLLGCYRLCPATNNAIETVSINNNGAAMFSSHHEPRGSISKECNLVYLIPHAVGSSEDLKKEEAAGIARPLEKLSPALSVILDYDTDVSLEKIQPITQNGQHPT
Chain of Muscarinic acetylcholine receptor M3 (P20309 whole entry): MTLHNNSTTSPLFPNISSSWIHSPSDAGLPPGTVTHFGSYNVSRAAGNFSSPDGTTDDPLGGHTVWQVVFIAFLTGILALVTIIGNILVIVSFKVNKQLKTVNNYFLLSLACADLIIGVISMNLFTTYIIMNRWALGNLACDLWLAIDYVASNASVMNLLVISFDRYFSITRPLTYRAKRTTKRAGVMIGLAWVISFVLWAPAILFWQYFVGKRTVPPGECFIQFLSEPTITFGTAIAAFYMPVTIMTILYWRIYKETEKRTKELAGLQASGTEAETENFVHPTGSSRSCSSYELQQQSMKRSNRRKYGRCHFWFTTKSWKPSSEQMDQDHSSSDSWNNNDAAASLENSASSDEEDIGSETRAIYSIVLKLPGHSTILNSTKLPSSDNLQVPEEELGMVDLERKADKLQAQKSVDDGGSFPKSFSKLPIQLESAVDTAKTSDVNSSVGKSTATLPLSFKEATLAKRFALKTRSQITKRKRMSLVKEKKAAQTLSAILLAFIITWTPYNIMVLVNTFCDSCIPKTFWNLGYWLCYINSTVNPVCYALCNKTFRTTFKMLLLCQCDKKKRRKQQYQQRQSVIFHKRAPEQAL

`COc1nnc2sc(C(=O)NC3CN(c4ncc(C(F)(F)F)cn4)C3)c(N)c2c1C` showed an Activity (Rattus norvegicus [1]) of over 50%, a Kp at 1.5 h [2] of 0.16 and an Activity [3] of over 50%. For the same compound, the fraction unbound [4] was 0.018, the Activity [5] was over 50% and the Activity [6] was over 50%. The Kp uu [7] was 1.5, the Activity (Rattus norvegicus [8]) was over 50% and the Activity [9] was over 50%. It also gave a minimal effective dose (Rattus norvegicus [10]) of 0.56 mg/kg, a %max [11] of 93% and an EC50 [12] of over 30 µM. It also gave an Activity [13] of over 50%, an Activity [14] of over 50% and an Activity [15] of over 50%. For the same compound, the Activity [16] was over 50%, the Activity [17] was over 50% and the Activity [18] was over 50%. It also gave an Activity (Rattus norvegicus [19]) of over 50%, an Activity (Rattus norvegicus [20]) of over 50% and an Activity [21] of over 50%. The Activity [22] was over 50%, the solubility [23] was 2.9 µM (≈ 1.27 µg/mL) and the EC50 [24] was 0.087 µM. For the same compound, the Activity [25] was over 50%, the Activity [26] was over 50% and the half-life [27] was 2.8 h. It also gave an IC50 (Cytochrome P450 2C9) of over 30 µM, an Activity [28] of over 50% and an Activity [29] of over 50%. It also gave a logD [30] of 3.73.
